Values quoted from earlier work as cited in patent EP1935412A2, “Pharmaceutical composition containing 5-chloro-1-[1-[3-(2-oxo-2,3-dihydro-1H-benzimidazol-1-yl)propyl]piperidine-4-yl]-1,3-dihydro-2H-benzimidazol-2-one and method of preparing same” (GALENIX DEVELOPPEMENT, priority 2006, dated 2008).

Conditions: dans l'eau

Solubility in water: pratiquement insoluble dans l'eau
Compound: O=c1[nH]c2ccccc2n1CCCN1CCC(n2c(=O)[nH]c3cc(Cl)ccc32)CC1 [dompéridone, 5-chloro-1-[1-[3-(2-oxo-2,3-dihydro-1H-benzimidazol-1-yl)propyl]pipéridin-4-yl]-1,3-dihydro-2H-benzimidazol-2-one]
